PMC7146753, “Self-Assembly, Nematic Phase Formation, and Organocatalytic Behavior of a Proline-Functionalized Lipopeptide” (ACS Applied Materials & Interfaces, 2020)
Where a SMILES comes first, the peptide text is derived from it. The star is where a group is joined. Palmitoyl = CCCCCCCCCCCCCCCC(=O)*; NHhexadecyl = CCCCCCCCCCCCCCCCN*

What was measured:
[1] = system: human breast cancer (MCF-7) cells; settings: 72 h
[2] = system: human dermal fibroblast (HDFa) cells; settings: 72 h

Row | SMILES | IC50 [1] [µM] | IC50 [2] [µM]
1 | CCCCCCCCCCCCCCCC(=O)N[C@H](C(=O)N[C@@H](CCCCN)C(=O)N1CCC[C@H]1C(=O)N[C@@H](CCC(=O)O)C(=O)N[C@@H](C)C(=O)N1CCC[C@H]1C(=O)O)[C@@H](C)CC [C16-IKPEAP] (Palmitoyl-IKPEAP-OH) | 630 | 390
2 | CCCCCCCCCCCCCCCCNC(=O)[C@@H](NC(=O)[C@H](CCCCN)NC(=O)[C@@H]1CCCN1C(=O)[C@H](CCC(=O)O)NC(=O)[C@H](C)NC(=O)[C@@H]1CCCN1)[C@@H](C)CC [PAEPKI-C16] (H-PAEPKI-NHhexadecyl) | 230 | 100
